Measurements as given in patent US4006133A, “Aminoglycoside antibiotics” (Sankyo Company Limited, priority 1973, dated 1977).
Converted amounts (≈) assume the structure as drawn. Where two headings read alike, the source gives them in different places.

Legend:
Format in all cases: cell-based
Proteus vulgaris 1416 = assay: Minimum inhibitory concentration
[1] = test system: Staphylococcus aureus 126; assay: Minimum inhibitory concentration
Proteus morganii 1501 = assay: Minimum inhibitory concentration
Shigella sonnei = assay: Minimum inhibitory concentration; details: Hurt's infusion agar
[2] = test system: Staphylococcus aureus 109; assay: Minimum inhibitory concentration
Salmonella typhi-murium = assay: Minimum inhibitory concentration; details: read-out: Minimum inhibitory concentration
Escherichia coli 605 = assay: Minimum inhibitory concentration
[3] = test system: Pseudomonas aeruginosa Scr.; assay: Minimum inhibitory concentration; details: read-out: Minimum inhibitory concentration
Klebsiella 813 = assay: Minimum inhibitory concentration
Escherichia coli 620 = assay: Minimum inhibitory concentration
[4] = test system: Pseudomonas aeruginosa 1080; assay: Minimum inhibitory concentration
Proteus mirabilis 1312 = assay: Minimum inhibitory concentration
[5] = test system: Pseudomonas schuylkilliensis; assay: Minimum inhibitory concentration; details: read-out: Minimum inhibitory concentration
[6] = test system: Staphylococcus epidermidis; assay: Minimum inhibitory concentration; details: read-out: Minimum inhibitory concentration
Escherichia coli 665 = assay: Minimum inhibitory concentration
[7] = test system: Staphylococcus aureus 163; assay: Minimum inhibitory concentration
[8] = test system: Pseudomonas aeruginosa 1100; assay: Minimum inhibitory concentration
Salmonella enteritidis = assay: Minimum inhibitory concentration; details: Salmonella enterica, read-out: Minimum inhibitory concentration
[9] = test system: Staphylococcus aureus 209 P; assay: Minimum inhibitory concentration; details: read-out: Minimum inhibitory concentration
Bacillus anthracis = assay: microbe, parasite or virus in culture; details: read-out: Minimum inhibitory concentration
Escherichia coli 704 = assay: Minimum inhibitory concentration
[10] = test system: Bacillus subtilis PCI-219; assay: Minimum inhibitory concentration
Proteus morganii 1512 = assay: Minimum inhibitory concentration
Shigella flexneri 2a = assay: Minimum inhibitory concentration; details: Hurt's infusion agar
[11] = test system: Pseudomonas aeruginosa 1055; assay: Minimum inhibitory concentration
Escherichia coli NIHJ = assay: Minimum inhibitory concentration; details: read-out: Minimum inhibitory concentration
Klebsiella 806 = assay: Minimum inhibitory concentration
[12] = test system: Pseudomonas aeruginosa 1016; assay: Minimum inhibitory concentration
Proteus rettgeri 1602 = assay: Minimum inhibitory concentration
[13] = test system: Staphylococcus aureus 167; assay: Minimum inhibitory concentration
Proteus rettgeri 1601 = assay: Minimum inhibitory concentration
Proteus mirabilis 1306 = assay: Minimum inhibitory concentration
Proteus vulgaris 1404 = assay: Minimum inhibitory concentration
[14] = test system: butirosin-resistant as well as butirosin-sensitive strains; assay: Antibacterial activity, butirosin-resistant and butirosin-sensitive strains

NCC[C@H](O)C(=O)N[C@@H]1C[C@H](N)[C@@H](O[C@H]2O[C@H](CN)CC[C@H]2N)[C@H](O[C@@H]2O[C@H](CN)[C@H](O)[C@H]2O)[C@H]1O [ATBA, 5"-amino-3',4',5"-trideoxybutirosin A]
MIC (Proteus vulgaris 1416; Proteus vulgaris 1416, Hurt's infusion agar, read-out: Minimum inhibitory concentration): 50 µg/mL (≈ 95.7 µM) | MIC ([1]; Staphylococcus aureus 126, Hurt's infusion agar, read-out: Minimum inhibitory concentration): 1.5 µg/mL (≈ 2.87 µM) | MIC (Proteus morganii 1501; Morganella morganii, Proteus morganii 1501, Hurt's infusion agar, read-out: Minimum inhibitory concentration): 1.5 µg/mL (≈ 2.87 µM) | MIC (Shigella sonnei): 3.1 µg/mL (≈ 5.93 µM) | MIC ([2]; Staphylococcus aureus 109, Hurt's infusion agar, read-out: Minimum inhibitory concentration): 3.1 µg/mL (≈ 5.93 µM) | MIC (Salmonella typhi-murium): 6.2 µg/mL (≈ 11.9 µM) | MIC (Escherichia coli 605; Escherichia coli 605, Hurt's infusion agar, read-out: Minimum inhibitory concentration): 25 µg/mL (≈ 47.8 µM) | MIC ([3]; Pseudomonas aeruginosa Scr., Hurt's infusion agar): 1.5 µg/mL (≈ 2.87 µM) | MIC (Klebsiella 813; Klebsiella 813, Hurt's infusion agar, read-out: Minimum inhibitory concentration): 25 µg/mL (≈ 47.8 µM) | MIC (Escherichia coli 620; Escherichia coli 620, Hurt's infusion agar, read-out: Minimum inhibitory concentration): 12.5 µg/mL (≈ 23.9 µM) | MIC ([4]; Pseudomonas aeruginosa 1080, Hurt's infusion agar, read-out: Minimum inhibitory concentration): 100 µg/mL (≈ 191 µM) | MIC (Proteus mirabilis 1312; Proteus mirabilis 1312, Hurt's infusion agar, read-out: Minimum inhibitory concentration): 50 µg/mL (≈ 95.7 µM) | MIC ([5]; Pseudomonas schuylkilliensis, Hurt's infusion agar): 6.2 µg/mL (≈ 11.9 µM) | MIC ([6]; Hurt's infusion agar): 1.5 µg/mL (≈ 2.87 µM) | MIC (Escherichia coli 665; Escherichia coli 665, Hurt's infusion agar, read-out: Minimum inhibitory concentration): 12.5 µg/mL (≈ 23.9 µM) | MIC ([7]; Staphylococcus aureus 163, Hurt's infusion agar, read-out: Minimum inhibitory concentration): 25 µg/mL (≈ 47.8 µM) | MIC ([8]; Pseudomonas aeruginosa 1100, Hurt's infusion agar, read-out: Minimum inhibitory concentration): 25 µg/mL (≈ 47.8 µM) | MIC (Salmonella enteritidis; Salmonella enteritidis, Hurt's infusion agar): 6.2 µg/mL (≈ 11.9 µM) | MIC ([9]; Staphylococcus aureus 209 P, Hurt's infusion agar): 0.2 µg/mL (≈ 0.383 µM) | MIC (Bacillus anthracis): 0.1 µg/mL (≈ 0.191 µM) | MIC (Escherichia coli 704; Escherichia coli 704, Hurt's infusion agar, read-out: Minimum inhibitory concentration): 6.2 µg/mL (≈ 11.9 µM) | MIC ([10]; PCI219, Bacillus subtilis PCI-219, Hurt's infusion agar, read-out: Minimum inhibitory concentration): 0.1 µg/mL (≈ 0.191 µM) | MIC (Proteus morganii 1512; Morganella morganii, Proteus morganii 1512, Hurt's infusion agar, read-out: Minimum inhibitory concentration): 3.1 µg/mL (≈ 5.93 µM) | MIC (Shigella flexneri 2a): 3.1 µg/mL (≈ 5.93 µM) | MIC ([11]; Pseudomonas aeruginosa 1055, Hurt's infusion agar, read-out: Minimum inhibitory concentration): 6.2 µg/mL (≈ 11.9 µM) | MIC (Escherichia coli NIHJ; Escherichia coli NIHJ, Hurt's infusion agar): 3.1 µg/mL (≈ 5.93 µM) | MIC (Klebsiella 806; Klebsiella 806, Hurt's infusion agar, read-out: Minimum inhibitory concentration): 6.2 µg/mL (≈ 11.9 µM) | MIC ([12]; Pseudomonas aeruginosa 1016, Hurt's infusion agar, read-out: Minimum inhibitory concentration): 3.1 µg/mL (≈ 5.93 µM) | MIC (Proteus rettgeri 1602; Providencia rettgeri, Proteus rettgeri 1602, Hurt's infusion agar, read-out: Minimum inhibitory concentration): 12.5 µg/mL (≈ 23.9 µM) | MIC ([13]; Staphylococcus aureus 167, Hurt's infusion agar, read-out: Minimum inhibitory concentration): 0.1 µg/mL (≈ 0.191 µM) | MIC (Proteus rettgeri 1601; Providencia rettgeri, Proteus rettgeri 1601, Hurt's infusion agar, read-out: Minimum inhibitory concentration): 1.5 µg/mL (≈ 2.87 µM) | MIC (Proteus mirabilis 1306; Proteus mirabilis 1306, Hurt's infusion agar, read-out: Minimum inhibitory concentration): 25 µg/mL (≈ 47.8 µM) | MIC (Proteus vulgaris 1404; Proteus vulgaris 1404, Hurt's infusion agar, read-out: Minimum inhibitory concentration): 6.2 µg/mL (≈ 11.9 µM) | antibacterial activity (in words) [14]: extremely active

NCC[C@H](O)C(=O)N[C@@H]1C[C@H](N)[C@@H](O[C@H]2O[C@H](CN)[C@@H](O)[C@H](O)[C@H]2N)[C@H](O[C@@H]2O[C@H](CO)[C@H](O)[C@H]2O)[C@H]1O [BA, butirosin A, reference compound]
MIC (Proteus vulgaris 1416; Proteus vulgaris, 1416, read-out: Minimum inhibitory concentration): 100 µg/mL (≈ 180 µM) | MIC ([1]; Staphylococcus aureus, 126, read-out: Minimum inhibitory concentration): 6.5 µg/mL (≈ 11.7 µM) | MIC (Proteus morganii 1501; Morganella morganii, 1501, read-out: Minimum inhibitory concentration): 3.1 µg/mL (≈ 5.58 µM) | MIC (Shigella sonnei): 6.2 µg/mL (≈ 11.2 µM) | MIC ([2]; Staphylococcus aureus, 109, read-out: Minimum inhibitory concentration): > 200 µg/mL | MIC (Salmonella typhi-murium; Salmonella typhi-murium, Hurt's infusion agar): 12.5 µg/mL (≈ 22.5 µM) | MIC (Escherichia coli 605; Escherichia coli, 605, read-out: Minimum inhibitory concentration): > 200 µg/mL | MIC ([3]; Pseudomonas aeruginosa): 12.5 µg/mL (≈ 22.5 µM) | MIC (Klebsiella 813; Klebsiella, 813, read-out: Minimum inhibitory concentration): 50 µg/mL (≈ 90 µM) | MIC (Escherichia coli 620; Escherichia coli, 620, read-out: Minimum inhibitory concentration): > 200 µg/mL | MIC ([4]; Pseudomonas aeruginosa, 1080, read-out: Minimum inhibitory concentration): > 200 µg/mL | MIC (Proteus mirabilis 1312; Proteus mirabilis, 1312, read-out: Minimum inhibitory concentration): 100 µg/mL (≈ 180 µM) | MIC ([5]; Pseudomonas): 25 µg/mL (≈ 45 µM) | MIC [6]: 0.4 µg/mL (≈ 0.72 µM) | MIC (Escherichia coli 665; Escherichia coli, 665, read-out: Minimum inhibitory concentration): > 200 µg/mL | MIC ([7]; Staphylococcus aureus, 163, read-out: Minimum inhibitory concentration): > 200 µg/mL | MIC ([8]; Pseudomonas aeruginosa, 1100, read-out: Minimum inhibitory concentration): > 200 µg/mL | MIC (Salmonella enteritidis; ENTERITIDIS): 12.5 µg/mL (≈ 22.5 µM) | MIC ([9]; Staphylococcus aureus, 209P): 1.5 µg/mL (≈ 2.7 µM) | MIC (Bacillus anthracis): 0.8 µg/mL (≈ 1.44 µM) | MIC (Escherichia coli 704; Escherichia coli, 704, read-out: Minimum inhibitory concentration): 12.5 µg/mL (≈ 22.5 µM) | MIC ([10]; Bacillus subtilis, PCI219, read-out: Minimum inhibitory concentration): 0.4 µg/mL (≈ 0.72 µM) | MIC (Proteus morganii 1512; Morganella morganii, 1512, read-out: Minimum inhibitory concentration): 25 µg/mL (≈ 45 µM) | MIC (Shigella flexneri 2a): 6.2 µg/mL (≈ 11.2 µM) | MIC ([11]; Pseudomonas aeruginosa, 1055, read-out: Minimum inhibitory concentration): > 200 µg/mL | MIC (Escherichia coli NIHJ; Escherichia coli): 3.1 µg/mL (≈ 5.58 µM) | MIC (Klebsiella 806; Klebsiella, 806, read-out: Minimum inhibitory concentration): 3.1 µg/mL (≈ 5.58 µM) | MIC ([12]; Pseudomonas aeruginosa, 1016, read-out: Minimum inhibitory concentration): > 200 µg/mL | MIC (Proteus rettgeri 1602; Providencia rettgeri, 1602, read-out: Minimum inhibitory concentration): > 200 µg/mL | MIC ([13]; Staphylococcus aureus, 167, read-out: Minimum inhibitory concentration): 200 µg/mL (≈ 360 µM) | MIC (Proteus rettgeri 1601; Providencia rettgeri, 1601, read-out: Minimum inhibitory concentration): 6.2 µg/mL (≈ 11.2 µM) | MIC (Proteus mirabilis 1306; Proteus mirabilis, 1306, read-out: Minimum inhibitory concentration): 50 µg/mL (≈ 90 µM) | MIC (Proteus vulgaris 1404; Proteus vulgaris, 1404, read-out: Minimum inhibitory concentration): 25 µg/mL (≈ 45 µM)
